Experimental data published in patent US20230087118A1, “IMIDAZO[1,2-a][sequence] DERIVATIVES AND THEIR USE IN THE TREATMENT OF DISEASE” (priority 2019, published 2023).
Where a name gives a salt, the structure may show the parent alone.

Target: T1, IRAK4 (Homo sapiens, UniProt Q9NWZ3)
T1 sequence (Q9NWZ3 1-460): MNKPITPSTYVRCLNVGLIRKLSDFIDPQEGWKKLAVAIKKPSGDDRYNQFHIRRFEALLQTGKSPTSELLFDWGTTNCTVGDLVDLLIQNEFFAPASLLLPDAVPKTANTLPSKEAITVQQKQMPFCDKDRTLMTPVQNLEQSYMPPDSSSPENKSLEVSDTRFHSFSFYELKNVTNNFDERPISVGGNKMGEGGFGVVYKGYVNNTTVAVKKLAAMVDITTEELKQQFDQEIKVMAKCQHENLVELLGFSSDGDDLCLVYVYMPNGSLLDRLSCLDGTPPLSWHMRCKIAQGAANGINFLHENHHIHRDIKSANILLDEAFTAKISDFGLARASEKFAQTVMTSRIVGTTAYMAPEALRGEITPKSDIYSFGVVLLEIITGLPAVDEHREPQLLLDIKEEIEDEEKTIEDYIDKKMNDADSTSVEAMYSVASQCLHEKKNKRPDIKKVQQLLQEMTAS
Assay: biochemical
Conditions: not given

`CC12CCC(c3cn4cc(C(=O)Nc5cccnc5OC(F)F)c(OC5CCC5)cc4n3)(CO1)C2` (stereo not drawn) [Example 536, 7-Cyclobutoxy-N-(2-(difluoromethoxy)pyridin-3-yl)-2-(1-methyl-2-oxabicyclo[2.2.1]heptan-4-yl)imidazo[1,2-a]pyridine-6-carboxamide] was tested. Which IC50 did it give?
The IC50 was 0.0016 µM.

`CCOc1nc(C(=O)Nc2cccc(F)c2Cl)cn2cc(C34COC(C)(C3)C4)nc12` [Example 485, N-(2-chloro-3-fluorophenyl)-8-ethoxy-2-(1-methyl-2-oxabicyclo[2.1.1]hexan-4-yl)imidazo[1,2-a]pyrazine-6-carboxamide] was tested. Which IC50 did it give?
Its IC50 is 0.009 µM.

For `CC12CC(c3cn4cc(C(=O)Nc5cnn6cccnc56)c(OC5CCC5)nc4n3)(CO1)C2` [Example 371, 7-Cyclobutoxy-2-(1-methyl-2-oxabicyclo[2.1.1]hexan-4-yl)-N-(pyrazolo[1,5-a]pyrimidin-3-yl)imidazo[1,2-a]pyrimidine-6-carboxamide], which IC50 is on record?
Its IC50 is 0.0003 µM.

Which IC50 does the source give for `CCOc1nc(C(=O)Nc2cccc(OC)n2)cn2cc(C34COC(C)(C3)C4)nc12` [Example 486, 8-Ethoxy-N-(6-methoxypyridin-2-yl)-2-(1-methyl-2-oxabicyclo[2.1.1]hexan-4-yl)imidazo[1,2-a]pyrazine-6-carboxamide] here?
Its IC50 is 0.0075 µM.

Which IC50 does the source give for `Cn1ccc(NC(=O)c2cn3cc(C45COC(C)(C4)C5)nc3cc2OC2CC(C)(C)C2)n1` [Example 440, 7-(3,3-Dimethylcyclobutoxy)-N-(1-methyl-1H-pyrazol-3-yl)-2-(1-methyl-2-oxabicyclo[2.1.1]hexan-4-yl)imidazo[1,2-a]pyridine-6-carboxamide] here?
Its IC50 is 0.0043 µM.

How did the IC50 turn out when `Cc1cnc2c(NC(=O)c3cn4cc(C56CCC(C5)OC6)nc4nc3OC(C)C)cnn2c1` (stereo not drawn) [Example 433] was run?
The IC50 was 0.0006 µM.

For `CC1CC(Oc2cc3nc(C45COC(C)(C4)C5)cn3cc2C(=O)Nc2ccn(C)n2)C1` (stereo not drawn) [Example 549], which IC50 is on record?
Its IC50 is 0.0034 µM.

For `Cn1ccc(NC(=O)c2cn3cc(C4CC4)nc3c(OC3CC3)n2)n1` [Example 281, 8-Cyclopropoxy-2-cyclopropyl-N-(1-methyl-1H-pyrazol-3-yl)imidazo[1,2-a]pyrazine-6-carboxamide], which IC50 is on record?
The IC50 was 0.0264 µM.

Same assay, conditions: IRAK4 Biochemical Assay (1 mM ATP, 2 h) IC50 (μM), 1 mM ATP, 2 h, 100 pM IRAK4

For `Cc1cnc2c(NC(=O)c3cn4cc(C5CC5)nc4cc3OC(C)C)cnn2c1` [Example 280, 2-Cyclopropyl-7-isopropoxy-N-(6-methylpyrazolo[1,5-a]pyrimidin-3-yl)imidazo[1,2-a]pyridine-6-carboxamide trifluoroacetate], which IC50 is on record?
The IC50 was 0.0019 µM.

How did the IC50 turn out when `O=C(Nc1cccc(C(F)F)n1)c1cn2cc(C3CC3)nc2cc1OC1CC(F)(F)C1` [Example 476, 2-Cyclopropyl-7-(3,3-difluorocyclobutoxy)-N-(6-(difluoromethyl)pyridin-2-yl)imidazo[1,2-a]pyridine-6-carboxamide] was run?
The IC50 was 0.0088 µM.

How did the IC50 turn out when `COc1cc2nc(C34CC(F)(C3)C4)cn2cc1C(=O)Nc1ccccn1` [Example 3] was run?
The IC50 was 0.217 µM.

With `CCOc1cc2nc(C3(OC)CC3)cn2cc1C(=O)Nc1cccc(C(F)F)n1` [Example 390, N-(6-(difluoromethyl)pyridin-2-yl)-7-ethoxy-2-(1-methoxy-cyclopropyl)imidazo[1,2-a]pyridine-6-carboxamide hydrochloride] as the molecule, how does the IC50 read?
Its IC50 is 0.009 µM.

`CC(C)Oc1c(C(=O)Nc2cccc(C(F)(F)F)n2)cn2cc(C34COC(C)(C3)C4)nc2c1F` [Example 230, 8-Fluoro-7-isopropoxy-2-(1-methyl-2-oxabicyclo[2.1.1]hexan-4-yl)-N-(6-(trifluoromethyl)pyridin-2-yl)imidazo[1,2-a]pyridine-6-carboxamide trifluoroacetate] was tested. Which IC50 did it give?
The IC50 was 0.003 µM.

Which IC50 does the source give for `COc1nc(C(=O)Nc2cccc3c2OCCC3)cn2cc(C3CCOCC3)nc12` [Example 205, N-chroman-8-yl-8-methoxy-2-tetrahydropyran-4-yl-imidazo[1,2-a]pyrazine-6-carboxamide trifluoroacetate] here?
The IC50 was 0.0341 µM.

With `CCCOc1nc(C(=O)Nc2cccnc2OC)cn2cc(C34CCC(C)(C3)OC4)nc12` (stereo not drawn) [Example 275, N-(2-methoxypyridin-3-yl)-2-(1-methyl-2-oxabicyclo[2.2.1]heptan-4-yl)-8-propoxyimidazo[1,2-a]pyrazine-6-carboxamide trifluoroacetate] as the molecule, how does the IC50 read?
Its IC50 is 0.0007 µM.
